In patent publication US20020137929A1, “1 - (3-heterocyclylphenyl) isothiourea, -isourea, -guanidine and -amidine herbicidal agents” (Intellectual Property Department, BASF Aktiengesellschaft, priority 1998, published 2002):

Legend:
AMBEL (Ragweed, Common) = assay: Postemergence herbicidal evaluation; assay type: in vivo, Ambrosia artemisifolia; settings: postemergence
Summary of the method: (§1)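 Two-week seedlings sprayed postemergence at 40 psi; formulation: 1:1 acetone/water, 0.5% TWEEN 20; application ≈0.0156–0.500 kg/ha. Greenhouse grow-out, then 0–9 visual scoring at 4–5 weeks.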

CASOB (Sicklepod) [1] = assay: Postemergence herbicidal evaluation; assay type: in vivo, Cassia obtusifolia; settings: postemergence
Summary of the method: as §1

GALAP (Galium) = assay: Postemergence herbicidal evaluation; assay type: in vivo, Galium aparine; settings: postemergence
Summary of the method: as §1

[2] = tested on: IPOHE (Morningglory, Ivyleaf); assay: Postemergence herbicidal evaluation; assay type: in vivo, Ipomoea hederacea; settings: postemergence
Summary of the method: as §1

ABUTH (Velvetleaf) = assay: Preemergence herbicidal evaluation; assay type: in vivo, Abutilon theophrasti; settings: rated 4-5 weeks after treatment
Summary of the method: (§2)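 In this greenhouse assay, monocot and dicot seeds are planted in soil and treated prior to emergence with an aqueous acetone spray (about 0.0156-0.500 kg/ha). Plants are assessed visually against control on a 0-9 scale after 4-5 weeks.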

CASOB (Sicklepod) [3] = assay: Preemergence herbicidal evaluation; assay type: in vivo, Cassia obtusifolia; settings: rated 4-5 weeks after treatment
Summary of the method: as §2

[4] = tested on: IPOHE (Morningglory, Ivyleaf); assay: Preemergence herbicidal evaluation; assay type: in vivo, Ipomoea hederacea; settings: rated 4-5 weeks after treatment
Summary of the method: as §2

ECHCG (Barnyardgrass) = assay: Preemergence herbicidal evaluation; assay type: in vivo, Echinochloa crus-galli; settings: rated 4-5 weeks after treatment
Summary of the method: as §2

[5] = tested on: GLXMAW (Soybean, Williams); assay: Preemergence herbicidal evaluation; assay type: in vivo, Glycine max, (L.) Merr. cv Williams; settings: rated 4-5 weeks after treatment
Summary of the method: as §2

[6] = tested on: TRZAWR (Wheat, Winter, cv Riband); assay: Preemergence herbicidal evaluation; assay type: in vivo, Triticum aestivum; settings: rated 4-5 weeks after treatment
Summary of the method: as §2

ZEAMX (Corn, Field) = assay: Preemergence herbicidal evaluation; assay type: in vivo, Zea mays; settings: rated 4-5 weeks after treatment
Summary of the method: as §2

MOOVA (Monochoria) = assay: Preemergence weed control under flooded paddy conditions; assay type: in vivo, Monochoria vaginalis; settings: rated 3-4 weeks after treatment
Summary of the method: (§3)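 Values are visual 0-9 scores against a control for a preemergence application into paddy flood water at about 0.0313 to 0.500 kg/ha. Greenhouse duration was three to four weeks.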

[7] = tested on: SAGPY (Arrowhead (Pygmaea)); assay: as above; assay type: in vivo, Sagittaria pygmaea; settings: rated 3-4 weeks after treatment
Summary of the method: as §3

[8] = rate 0.0156 kg/ha, rating scale 0-9
[9] = rate 0.0313 kg/ha, rating scale 0-9
[10] = rate 0.0625 kg/ha, rating scale 0-9
[11] = rate 0.1250 kg/ha, rating scale 0-9
[12] = rate 0.2500 kg/ha, rating scale 0-9

Cc1cccc(CN2C(=O)CSC2=Nc2cc(-n3c(=O)cc(C(F)(F)F)n(C)c3=O)c(F)cc2Cl)c1 [Compound 130, 3-{4-Chloro-2-fluoro-5-{[3-(m-methylbenzyl)-4-oxo-2-thiazolidinylidene]amino}phenyl}-1-methyl-6-(trifluoromethyl)-2,4 (1H, 3H)-pyrimidinedione]
6.0: Preemergence herbicidal rating TRZAWR [6, 12] | herbicidal effect rating, MOOVA (MOOVA (Monochoria); 0.1250 kg/ha) | herbicidal effect rating, MOOVA (MOOVA (Monochoria); 0.2500 kg/ha)
5.0: herbicidal rating CASOB (CASOB (Sicklepod) [1]; rate 0.0625 kg/ha) | herbicidal rating GALAP (GALAP (Galium); rate 0.0625 kg/ha) | Preemergence herbicidal rating GLXMAW [5, 12]
1.0: Preemergence herbicidal rating ABUTH (ABUTH (Velvetleaf); [8]) | Preemergence herbicidal rating CASOB (CASOB (Sicklepod) [3]; [9]) | Preemergence herbicidal rating ECHCG (ECHCG (Barnyardgrass); [10]) | Preemergence herbicidal rating TRZAWR [6, 10] | Preemergence herbicidal rating ZEAMX (ZEAMX (Corn, Field); [9])
9.0: herbicidal rating AMBEL (AMBEL (Ragweed, Common); rate 0.0156 kg/ha) | herbicidal rating AMBEL (AMBEL (Ragweed, Common); rate 0.0313 kg/ha) | herbicidal rating AMBEL (AMBEL (Ragweed, Common); rate 0.0625 kg/ha) | herbicidal rating IPOHE ([2]; rate 0.0156 kg/ha) | herbicidal rating IPOHE ([2]; rate 0.0313 kg/ha) | herbicidal rating IPOHE ([2]; rate 0.0625 kg/ha) | Preemergence herbicidal rating ABUTH (ABUTH (Velvetleaf); [9]) | Preemergence herbicidal rating ABUTH (ABUTH (Velvetleaf); [10]) | Preemergence herbicidal rating ABUTH (ABUTH (Velvetleaf); [11]) | Preemergence herbicidal rating ABUTH (ABUTH (Velvetleaf); [12]) | Preemergence herbicidal rating IPOHE [4, 11] | Preemergence herbicidal rating ZEAMX (ZEAMX (Corn, Field); [12])
7.0: Preemergence herbicidal rating IPOHE [4, 12] | Preemergence herbicidal rating ECHCG (ECHCG (Barnyardgrass); [12]) | Preemergence herbicidal rating ZEAMX (ZEAMX (Corn, Field); [11])
0.0: Preemergence herbicidal rating CASOB (CASOB (Sicklepod) [3]; [8]) | Preemergence herbicidal rating IPOHE [4, 8] | Preemergence herbicidal rating IPOHE [4, 9] | Preemergence herbicidal rating ECHCG (ECHCG (Barnyardgrass); [8]) | Preemergence herbicidal rating ECHCG (ECHCG (Barnyardgrass); [9]) | Preemergence herbicidal rating GLXMAW [5, 8] | Preemergence herbicidal rating GLXMAW [5, 9] | Preemergence herbicidal rating TRZAWR [6, 8] | Preemergence herbicidal rating TRZAWR [6, 9] | Preemergence herbicidal rating ZEAMX (ZEAMX (Corn, Field); [8]) | herbicidal effect rating, MOOVA (MOOVA (Monochoria); 0.0313 kg/ha) | herbicidal effect rating, MOOVA (MOOVA (Monochoria); 0.0625 kg/ha) | herbicidal effect rating, SAGPY ([7]; 0.1250 kg/ha)
2.0: herbicidal rating CASOB (CASOB (Sicklepod) [1]; rate 0.0156 kg/ha) | herbicidal rating GALAP (GALAP (Galium); rate 0.0156 kg/ha) | Preemergence herbicidal rating CASOB (CASOB (Sicklepod) [3]; [10]) | Preemergence herbicidal rating IPOHE [4, 10] | Preemergence herbicidal rating GLXMAW [5, 10]
3.0: herbicidal rating GALAP (GALAP (Galium); rate 0.0313 kg/ha) | Preemergence herbicidal rating CASOB (CASOB (Sicklepod) [3]; [12]) | Preemergence herbicidal rating GLXMAW [5, 11] | Preemergence herbicidal rating TRZAWR [6, 11] | herbicidal effect rating, SAGPY ([7]; 0.2500 kg/ha)
4.0: herbicidal rating CASOB (CASOB (Sicklepod) [1]; rate 0.0313 kg/ha) | Preemergence herbicidal rating ECHCG (ECHCG (Barnyardgrass); [11]) | Preemergence herbicidal rating ZEAMX (ZEAMX (Corn, Field); [10]) | herbicidal effect rating, SAGPY ([7]; 0.0313 kg/ha) | herbicidal effect rating, SAGPY ([7]; 0.0625 kg/ha)

Cn1c(C(F)(F)F)cc(=O)n(-c2cc(N=C3SCC(=O)N3Cc3ccco3)c(Cl)cc2F)c1=O [Compound 122, 3-{4-Chloro-2-fluoro-5-[(3-furfuryl-4-oxo-2-thiazolidinylidene)amino]phenyl}-1-methyl-6-(trifluoromethyl)-2,4(1H,3H)-pyrimidinedione]
2.0: herbicidal rating GALAP (GALAP (Galium); rate 0.0156 kg/ha) | herbicidal rating GALAP (GALAP (Galium); rate 0.0313 kg/ha) | Preemergence herbicidal rating IPOHE ([4]; rate 0.1250 kg/ha) | herbicidal effect rating, SAGPY ([7]; 0.0313 kg/ha)
5.0: herbicidal effect rating, SAGPY ([7]; 0.1250 kg/ha)
7.0: herbicidal rating AMBEL (AMBEL (Ragweed, Common); rate 0.0156 kg/ha)
4.0: herbicidal rating CASOB (CASOB (Sicklepod) [1]; rate 0.1250 kg/ha) | herbicidal rating GALAP (GALAP (Galium); rate 0.0625 kg/ha) | Preemergence herbicidal rating ABUTH (ABUTH (Velvetleaf); rate 0.0625 kg/ha)
3.0: herbicidal rating CASOB (CASOB (Sicklepod) [1]; rate 0.0313 kg/ha) | herbicidal rating CASOB (CASOB (Sicklepod) [1]; rate 0.0625 kg/ha) | Preemergence herbicidal rating CASOB (CASOB (Sicklepod) [3]; rate 0.5000 kg/ha) | herbicidal effect rating, SAGPY ([7]; 0.0625 kg/ha)
6.0: herbicidal rating GALAP (GALAP (Galium); rate 0.1250 kg/ha) | herbicidal effect rating, SAGPY ([7]; 0.2500 kg/ha)
9.0: herbicidal rating AMBEL (AMBEL (Ragweed, Common); rate 0.0313 kg/ha) | herbicidal rating AMBEL (AMBEL (Ragweed, Common); rate 0.0625 kg/ha) | herbicidal rating AMBEL (AMBEL (Ragweed, Common); rate 0.1250 kg/ha) | herbicidal rating IPOHE ([2]; rate 0.0156 kg/ha) | herbicidal rating IPOHE ([2]; rate 0.0313 kg/ha) | herbicidal rating IPOHE ([2]; rate 0.0625 kg/ha) | herbicidal rating IPOHE ([2]; rate 0.1250 kg/ha) | Preemergence herbicidal rating ABUTH (ABUTH (Velvetleaf); rate 0.1250 kg/ha) | Preemergence herbicidal rating ABUTH (ABUTH (Velvetleaf); rate 0.2500 kg/ha) | Preemergence herbicidal rating ABUTH (ABUTH (Velvetleaf); rate 0.5000 kg/ha) | herbicidal effect rating, MOOVA (MOOVA (Monochoria); 0.0625 kg/ha) | herbicidal effect rating, MOOVA (MOOVA (Monochoria); 0.1250 kg/ha) | herbicidal effect rating, MOOVA (MOOVA (Monochoria); 0.2500 kg/ha)
1.0: herbicidal rating CASOB (CASOB (Sicklepod) [1]; rate 0.0156 kg/ha) | Preemergence herbicidal rating IPOHE ([4]; rate 0.2500 kg/ha) | Preemergence herbicidal rating IPOHE ([4]; rate 0.5000 kg/ha) | Preemergence herbicidal rating ECHCG (ECHCG (Barnyardgrass); rate 0.5000 kg/ha) | Preemergence herbicidal rating GLXMAW ([5]; rate 0.0625 kg/ha) | Preemergence herbicidal rating TRZAWR ([6]; rate 0.5000 kg/ha) | Preemergence herbicidal rating ZEAMX (ZEAMX (Corn, Field); rate 0.5000 kg/ha)
0.0: Preemergence herbicidal rating ABUTH (ABUTH (Velvetleaf); rate 0.0156 kg/ha) | Preemergence herbicidal rating ABUTH (ABUTH (Velvetleaf); rate 0.0313 kg/ha) | Preemergence herbicidal rating CASOB (CASOB (Sicklepod) [3]; rate 0.0156 kg/ha) | Preemergence herbicidal rating CASOB (CASOB (Sicklepod) [3]; rate 0.0313 kg/ha) | Preemergence herbicidal rating CASOB (CASOB (Sicklepod) [3]; rate 0.0625 kg/ha) | Preemergence herbicidal rating CASOB (CASOB (Sicklepod) [3]; rate 0.1250 kg/ha) | Preemergence herbicidal rating CASOB (CASOB (Sicklepod) [3]; rate 0.2500 kg/ha) | Preemergence herbicidal rating IPOHE ([4]; rate 0.0156 kg/ha) | Preemergence herbicidal rating IPOHE ([4]; rate 0.0313 kg/ha) | Preemergence herbicidal rating IPOHE ([4]; rate 0.0625 kg/ha) | Preemergence herbicidal rating ECHCG (ECHCG (Barnyardgrass); rate 0.0156 kg/ha) | Preemergence herbicidal rating ECHCG (ECHCG (Barnyardgrass); rate 0.0313 kg/ha) | Preemergence herbicidal rating ECHCG (ECHCG (Barnyardgrass); rate 0.0625 kg/ha) | Preemergence herbicidal rating ECHCG (ECHCG (Barnyardgrass); rate 0.1250 kg/ha) | Preemergence herbicidal rating ECHCG (ECHCG (Barnyardgrass); rate 0.2500 kg/ha) | Preemergence herbicidal rating GLXMAW ([5]; rate 0.0156 kg/ha) | Preemergence herbicidal rating GLXMAW ([5]; rate 0.0313 kg/ha) | Preemergence herbicidal rating GLXMAW ([5]; rate 0.1250 kg/ha) | Preemergence herbicidal rating GLXMAW ([5]; rate 0.2500 kg/ha) | Preemergence herbicidal rating GLXMAW ([5]; rate 0.5000 kg/ha) | Preemergence herbicidal rating TRZAWR ([6]; rate 0.0156 kg/ha) | Preemergence herbicidal rating TRZAWR ([6]; rate 0.0313 kg/ha) | Preemergence herbicidal rating TRZAWR ([6]; rate 0.0625 kg/ha) | Preemergence herbicidal rating TRZAWR ([6]; rate 0.1250 kg/ha) | Preemergence herbicidal rating TRZAWR ([6]; rate 0.2500 kg/ha) | Preemergence herbicidal rating ZEAMX (ZEAMX (Corn, Field); rate 0.0156 kg/ha) | Preemergence herbicidal rating ZEAMX (ZEAMX (Corn, Field); rate 0.0313 kg/ha) | Preemergence herbicidal rating ZEAMX (ZEAMX (Corn, Field); rate 0.0625 kg/ha) | Preemergence herbicidal rating ZEAMX (ZEAMX (Corn, Field); rate 0.1250 kg/ha) | Preemergence herbicidal rating ZEAMX (ZEAMX (Corn, Field); rate 0.2500 kg/ha)
8.0: herbicidal effect rating, MOOVA (MOOVA (Monochoria); 0.0313 kg/ha)
